Values quoted from earlier work, collected in patent US20240263147A1, “CARDIAC ORGANOID AND ANTI-ELECTRO-MITOCHONDRIAL DESYNCHRONIZATION THERAPY” (YISSUM RESEARCH DEVELOPMENT COMPANY OF THE HEBREW …, priority 2021, published 2024).

Conditions: known cardiac side effects of therapeutic agents; cited from earlier work

Molecule	Side effect (cardiac)
Ipilimumab	lethal myocarditis
N.N.[Cl][Pt][Cl] [Cisplatin]	arrhythmias, myocardial ischemia, heart failure
CC(C)(N)Cc1ccccc1 [Phentermine]	valvular heart disease
COc1cc(OC)c(C(=O)CCCN2CCCC2)c(OC)c1 [Buflomedil]	QT prolongation, cardiac arrest
N=C(N)c1ccc(OCCCCCOc2ccc(C(=N)N)cc2)cc1 [Pentamidine]	QT prolongation, arrhythmias
CC(C)(N)Cc1ccc(Cl)cc1 [Chlorphentermine]	pulmonary heart disease
COc1ccc(C(=O)Nc2ccccc2CCC2CCCCN2C)cc1 (centres unmarked) [Encainide]	QT prolongation, TdP
C[C@@H]1CN(c2c(F)c(N)c3c(=O)c(C(=O)O)cn(C4CC4)c3c2F)C[C@H](C)N1 [Sparfloxacin]	QT prolongation
COc1ccc(C(CN(C)C)C2(O)CCCCC2)cc1 (centres unmarked) [Venlafaxine]	QT prolongation, arrhythmias
CCN(CC)CCNC(=O)c1c(C)[nH]c(/C=C2\C(=O)Nc3ccc(F)cc32)c1C [Sunitinib]	long QT, left ejection fraction, myocardial infarction
CC(CN(C)C)C(C)(O)Cc1ccc(Cl)cc1 (centres unmarked) [Clobutinol]	QT prolongation
CS(=O)(=O)CCNCc1ccc(-c2ccc3ncnc(Nc4ccc(OCc5cccc(F)c5)c(Cl)c4)c3c2)o1 [Lapatinib]	left ventricular ejection fraction, congestive heart failure
Cc1ccc(-c2ncc(Cl)cc2-c2ccc(S(C)(=O)=O)cc2)cn1 [Etoricoxib]	thrombotic events
CCN(CC)CC(=O)Nc1c(C)cccc1C [Lidocaine]	bradycardia, cardiac arrest
O=c1[nH]cc(F)c(=O)[nH]1 [5-fluorouracil]	arrhythmias, myocardial ischemia, heart failure
CN1C[C@H](C(=O)N[C@]2(C)O[C@@]3(O)[C@@H]4CCCN4C(=O)[C@H](Cc4ccccc4)N3C2=O)C=C2c3cccc4[nH]cc(c34)C[C@H]21 [Ergotamine]	valvular heart disease
COc1cccc2c1C(=O)c1c(O)c3c(c(O)c1C2=O)C[C@@](O)(C(C)=O)C[C@@H]3O[C@H]1C[C@H](N)[C@H](O)[C@H](C)O1 [Daunorubicin]	arrhythmias, heart failure
CCN[C@@H](C)Cc1cccc(C(F)(F)F)c1 [Dexfenfluramine]	valvular heart disease
CN(CCOc1ccc(CC2SC(=O)NC2=O)cc1)c1ccccn1 (centres unmarked) [Rosiglitazone]	heart failure
CC[C@@H](CO)NC(=O)[C@@H]1C=C2c3cccc4c3c(cn4C)C[C@H]2N(C)C1 [Methysergide]	valvular heart disease
Cn1c(=O)cc(N2CCC[C@@H](N)C2)n(Cc2ccccc2C#N)c1=O [Alogliptin]	heart failure
COc1ccc2[nH]c([S+]([O-])Cc3ncc(C)c(OC)c3C)nc2c1 (centres unmarked) [Omeprazole]	acute myocardial infarction, heart failure
COCC(=O)O[C@]1(CCN(C)CCCc2nc3ccccc3[nH]2)CCc2cc(F)ccc2[C@@H]1C(C)C [Mibefradil]	QT prolongation
CC(C)OC(=O)[C@H](C)N[P@](=O)(OC[C@H]1O[C@@H](n2ccc(=O)[nH]c2=O)[C@](C)(F)[C@@H]1O)Oc1ccccc1 [Sofobuvir]	Bradycardia
COc1ccc2cc([C@H](C)C(=O)O)ccc2c1 [Naproxen]	myocardial infarction
CCCCN1CCCCC1C(=O)Nc1c(C)cccc1C (centres unmarked) [Bupivacaine]	ventricular arrhythmias, myocardial depression
CCNC(C)Cc1cccc(C(F)(F)F)c1 (centres unmarked) [Fenfluramine]	valvular heart disease
O=C1NCCN1CCN1CCC(c2cn(-c3ccc(F)cc3)c3ccc(Cl)cc23)CC1 [Sertindole]	QT prolongation, TdP, sudden cardiac death
CCCCCNC(=N)N/N=C/c1c[nH]c2ccc(OC)cc12 [Tegaserod]	Ischemia
